Results on two compounds are retold here after paper PMC10324399, “New Radiolabeled Exendin Analogues Show Reduced Renal Retention” (Molecular Pharmaceutics, 2023).

The nature of data set [1]: Serum stability of 68Ga- and 177Lu-labeled exendin-4 analogues in human serum. In kind it is in vitro ADME. The settings on record: ^177Lu-labeled peptide, human serum (1:10), 37 °C, after 24 h, acetonitrile precipitation, RP-HPLC.
Description: Serum stability was analyzed as described in the Supporting Information.
The radiolabeled compounds were incubated in
10 human serum (1:10) at 37°C and samples were taken after 1 and 2 hour incubation for the 68Ga-labeled
12 Supernatant was obtained by precipitating the serum proteins by adding a 1:1 (v/v) volume of
13 acetonitrile, followed by centrifugation for 5 min at 3220xg. Subsequently, the supernatant was
14 analyzed using RP-HPLC. RP-HPLC was performed as described in the main text.
Data set [2] in a line: Dosimetry: absorbed kidney dose extrapolated to humans (OLINDA/EXM, 80 kg male reference model). The settings on record: radiolabeled tracer (^68Ga or ^177Lu), extrapolated from mice data. Set-up: species or system human. The text has this: The mice data were then used to extrapolate the expected absorbed kidney doses per injected activity to humans using the equation:[25],[26] [drawing 1] with [drawing 2] the percentage of the injected activity concentration, [drawing 3] the percentage of the injected activity per organ, m the organ mass, and M the total human or mouse body weight.

The nature of data set [3]: Dosimetry: kidney self-dose in mice (OLINDA/EXM, 25 g RADAR model). Set-up: species or system mouse. The protocol:
The kidney self-dose was calculated based on the activity distribution of the tracer in the kidneys. Time-integrated activity coefficients (MBq-h/MBq) were calculated using mono-exponential curve-fitting between the timepoints.

The conditions of data set [4]: co-administration; cited from earlier work. The text has this: Several successful strategies to reduce the renal uptake of radiolabeled peptides have been described. […]. […] These two studies evoked the question whether the translation of the methionine–isoleucine linker to exendin-4 could help to reduce the renal uptake of exendin. Based on literature, the additio ...

Bounds are passed on as bounds.

In data set [1], “Lys^40[Mep((S-)DOTA-Met-Ile-Mal-)]exendin-4 [DOTA-MI-exendin-4]” showed a serum stability of over 80% after 24 h. Further, in data set [2], the “estimated absorbed kidney dose per injected activity, humans” value was 0.89 mSv/MBq. For the same compound, in data set [3] (in both mice and humans), the “reduction of estimated absorbed kidney dose vs reference without MI linker” value is 57%. Besides, the “estimated absorbed kidney dose per injected activity, mice” value in data set [3] (radiolabeled tracer (^68Ga or ^177Lu), from biodistribution in INS-1 tumor-bearing mice, OLINDA/EXM 2.1, 25 g RADAR model) is reported as 1974 mSv/MBq.

In the case of `NCCCC[C@H](N)C(=O)O` [lysine], the “increase in renal uptake of radiolabeled exendin” value in data set [4] was 6%.
